{"source": "patent US7612205B2", "about": "“Crystals of quinolinecarboxylic acid derivative solvate” (Nippon Shinyaku Co., Ltd., priority 2003, dated 2009)", "key": {"[1]": {"test": "Investigation on solvent for crystallization: whether Compound A is dissolved in a solvent", "assay_type": "physicochemical", "details": "organic solvent or mixture, thermodynamic from solid, 3 ml solvent to 50 mg", "procedure": "(1) By adding 3 ml of a solvent to 50 mg of Compound A, it was investigated whether Compound A is dissolved or not.\n(§1) The results of the (1) described above are shown in the column of *1 of Table 2 and the results of the (2) described above are shown in the column of *2 of Table 2."}, "[2]": {"test": "Stability of Compound A in a solvent by high-performance liquid chromatography", "assay_type": "physicochemical", "design": "key to Chemical stability (*2): ◯: the one that did not have a peak other than that of Compound A (there is no degradation product); X: the one that had a peak other than that of Compound A (there is a degradation product)", "details": "50° C. for 1000 minutes, HPLC; for Chemical stability (*2): 2-fold volume", "procedure": "(2) In order to investigate the stability of Compound A in a solvent, a 2-fold volume (the volume of a solvent (ml)/the weight of a dissolved substance (g)) of a solvent was added to Compound A, the mixture was maintained at 50° C. for 1000 minutes, and then the stability of the compound was investigated by high-performance liquid chromatography.\nas §1"}, "[3]": {"details": "acetonitrile, in terms of the desolvate", "description": "In the present invention, the term “supersaturation concentration: Cx (g/100 g)” means the degree of supersaturation state and it is represented by the following formula. Cx=C−Cs\nWhere, C (g/100 g) indicates the mass (in terms of the desolvate) of Compound B dissolved in 100 g of a solvent.\nCs (g/100 g) indicates the saturation solubility (in terms of the desolvate) of Compound B dissolved in 100 g of a solvent under the temperature at the time of occurrence of spontaneous nucleation or addition of seed crystal.\nA predetermined amount of Compound A was dissolved in a predetermined amount of acetonitrile, crystallization was carried out at various supersaturation concentrations, and the obtained crystals were analyzed with a powder X-ray diffractometer."}, "[4]": {"details": "in acetonitrile, stirred for 30 minutes", "procedure": "In the present invention, the term “solvent mediated transformation” means transformation of a crystal into another crystal form in the presence of a solvent. For example, it means that at a predetermined temperature, the crystal of Compound B is transformed into the type I crystal of Compound A in a solvent.\nThe crystal of Compound B was added to acetonitrile in an amount of not less than the supersaturation concentration at a predetermined temperature (in a state where not all the added crystals are dissolved and some crystals are present), stirred for 30 minutes, and then the crystal was filtered and measured with a powder X-ray diffractometer."}}, "note": "Read-outs that look alike come from different tables or passages of the source."}
{"smiles": "Cc1oc(=O)oc1CN1CCN(c2cc3c(cc2F)c(=O)c(C(=O)O)c2n3C(C)S2)CC1", "note": "(stereo not drawn) [Compound A, 6-fluoro-1-methyl-7-[4-(5-methyl-2-oxo-1,3-dioxolen-4-yl)-methyl-1-piperazinyl]-4-oxo-4H-[1,3]thiazeto[3,2-a]quinoline-3-carboxylic acid]", "values": [{"measurement": "solubility", "setting": "[1]; solvent 1-butanol", "value": "≤ 16.7", "unit": "mg/mL"}, {"measurement": "solubility", "setting": "[1]; solvent 2-ethoxy ethanol, read-out: Solubility (*1)", "value": "≥ 16.7", "unit": "mg/mL"}, {"measurement": "solubility", "setting": "[1]; solvent 2-propanol, read-out: Solubility (*1)", "value": "≤ 16.7", "unit": "mg/mL"}, {"measurement": "solubility", "setting": "[1]; solvent N,N-dimethylformamide, read-out: Solubility (*1)", "value": "> 16.7", "unit": "mg/mL"}, {"measurement": "solubility", "setting": "[1]; solvent acetic acid, read-out: Solubility (*1)", "value": "> 16.7", "unit": "mg/mL"}, {"measurement": "solubility", "setting": "[1]; solvent acetic anhydride, read-out: Solubility (*1)", "value": "≥ 16.7", "unit": "mg/mL"}, {"measurement": "solubility", "setting": "[1]; solvent acetone, read-out: Solubility (*1)", "value": "≤ 16.7", "unit": "mg/mL"}, {"measurement": "solubility", "setting": "[1]; solvent acetonitrile, read-out: Solubility (*1)", "value": "≥ 16.7", "unit": "mg/mL"}, {"measurement": "solubility", "setting": "[1]; solvent aniline, read-out: Solubility (*1)", "value": "> 16.7", "unit": "mg/mL"}, {"measurement": "solubility", "setting": "[1]; solvent benzene, read-out: Solubility (*1)", "value": "≤ 16.7", "unit": "mg/mL"}, {"measurement": "solubility", "setting": "[1]; solvent carbon tetrachloride, read-out: Solubility (*1)", "value": "≤ 16.7", "unit": "mg/mL"}, {"measurement": "solubility", "setting": "[1]; solvent chloroacetonitrile, read-out: Solubility (*1)", "value": "> 16.7", "unit": "mg/mL"}, {"measurement": "solubility", "setting": "[1]; solvent chloroform, read-out: Solubility (*1)", "value": "≤ 16.7", "unit": "mg/mL"}, {"measurement": "solubility", "setting": "[1]; solvent cresol, read-out: Solubility (*1)", "value": "≤ 16.7", "unit": "mg/mL"}, {"measurement": "solubility", "setting": "[1]; solvent dibutyl ether, read-out: Solubility (*1)", "value": "≤ 16.7", "unit": "mg/mL"}, {"measurement": "solubility", "setting": "[1]; solvent diisopropyl ether, read-out: Solubility (*1)", "value": "≤ 16.7", "unit": "mg/mL"}, {"measurement": "solubility", "setting": "[1]; solvent dioxane, read-out: Solubility (*1)", "value": "≤ 16.7", "unit": "mg/mL"}, {"measurement": "solubility", "setting": "[1]; solvent diphenyl ether, read-out: Solubility (*1)", "value": "≤ 16.7", "unit": "mg/mL"}, {"measurement": "solubility", "setting": "[1]; solvent ethanol, read-out: Solubility (*1)", "value": "≤ 16.7", "unit": "mg/mL"}, {"measurement": "solubility", "setting": "[1]; solvent ethyl acetate, read-out: Solubility (*1)", "value": "≤ 16.7", "unit": "mg/mL"}, {"measurement": "solubility", "setting": "[1]; solvent formamide, read-out: Solubility (*1)", "value": "≤ 16.7", "unit": "mg/mL"}, {"measurement": "solubility", "setting": "[1]; solvent formic acid, read-out: Solubility (*1)", "value": "> 16.7", "unit": "mg/mL"}, {"measurement": "solubility", "setting": "[1]; solvent glycerin, read-out: Solubility (*1)", "value": "≤ 16.7", "unit": "mg/mL"}, {"measurement": "solubility", "setting": "[1]; solvent heptane, read-out: Solubility (*1)", "value": "≤ 16.7", "unit": "mg/mL"}, {"measurement": "solubility", "setting": "[1]; solvent hexane, read-out: Solubility (*1)", "value": "≤ 16.7", "unit": "mg/mL"}, {"measurement": "solubility", "setting": "[1]; solvent isobutyl alcohol, read-out: Solubility (*1)", "value": "≤ 16.7", "unit": "mg/mL"}, {"measurement": "solubility", "setting": "[1]; solvent isopropyl acetate, read-out: Solubility (*1)", "value": "≤ 16.7", "unit": "mg/mL"}, {"measurement": "solubility", "setting": "[1]; solvent ligroin, read-out: Solubility (*1)", "value": "≤ 16.7", "unit": "mg/mL"}, {"measurement": "solubility", "setting": "[1]; solvent methanol, read-out: Solubility (*1)", "value": "≤ 16.7", "unit": "mg/mL"}, {"measurement": "solubility", "setting": "[1]; solvent methyl acetate, read-out: Solubility (*1)", "value": "≤ 16.7", "unit": "mg/mL"}, {"measurement": "solubility", "setting": "[1]; solvent methyl ethyl ketone, read-out: Solubility (*1)", "value": "≤ 16.7", "unit": "mg/mL"}, {"measurement": "solubility", "setting": "[1]; solvent methylcyclohexane, read-out: Solubility (*1)", "value": "≤ 16.7", "unit": "mg/mL"}, {"measurement": "solubility", "setting": "[1]; solvent nitromethane, read-out: Solubility (*1)", "value": "> 16.7", "unit": "mg/mL"}, {"measurement": "solubility", "setting": "[1]; solvent p-cymene, read-out: Solubility (*1)", "value": "≤ 16.7", "unit": "mg/mL"}, {"measurement": "solubility", "setting": "[1]; solvent petroleum ether, read-out: Solubility (*1)", "value": "≤ 16.7", "unit": "mg/mL"}, {"measurement": "solubility", "setting": "[1]; solvent phenol, read-out: Solubility (*1)", "value": "≥ 16.7", "unit": "mg/mL"}, {"measurement": "solubility", "setting": "[1]; solvent pyridine, read-out: Solubility (*1)", "value": "> 16.7", "unit": "mg/mL"}, {"measurement": "solubility", "setting": "[1]; solvent tetrachloroethylene, read-out: Solubility (*1)", "value": "≤ 16.7", "unit": "mg/mL"}, {"measurement": "solubility", "setting": "[1]; solvent tetrahydrofuran, read-out: Solubility (*1)", "value": "≤ 16.7", "unit": "mg/mL"}, {"measurement": "solubility", "setting": "[1]; solvent toluene, read-out: Solubility (*1)", "value": "≤ 16.7", "unit": "mg/mL"}, {"measurement": "solubility", "setting": "[1]; solvent trichloroethylene, read-out: Solubility (*1)", "value": "≤ 16.7", "unit": "mg/mL"}, {"measurement": "solubility", "setting": "[1]; solvent xylene, read-out: Solubility (*1)", "value": "≤ 16.7", "unit": "mg/mL"}, {"measurement": "degradation product in solvent", "setting": "[2]; formic acid, acetic acid and aniline", "value": "a degradation product of Compound A was observed"}, {"measurement": "Chemical stability (*2)", "setting": "[2]; solvent 2-ethoxy ethanol", "value": "X"}, {"measurement": "Chemical stability (*2)", "setting": "[2]; solvent acetic acid", "value": "X"}, {"measurement": "Chemical stability (*2)", "setting": "[2]; solvent acetic anhydride", "value": "X"}, {"measurement": "Chemical stability (*2)", "setting": "[2]; solvent acetonitrile", "value": "◯"}, {"measurement": "Chemical stability (*2)", "setting": "[2]; solvent aniline", "value": "X"}, {"measurement": "Chemical stability (*2)", "setting": "[2]; solvent formic acid", "value": "X"}, {"measurement": "Chemical stability (*2)", "setting": "[2]; solvent methanol", "value": "X"}, {"measurement": "Chemical stability (*2)", "setting": "[2]; solvent phenol", "value": "X"}]}
{"smiles": "CC#N.Cc1oc(=O)oc1CN1CCN(c2cc3c(cc2F)c(=O)c(C(=O)O)c2n3C(C)S2)CC1", "note": "(stereo not drawn) [Compound B, 6-fluoro-1-methyl-7-[4-(5-methyl-2-oxo-1,3-dioxolen-4-yl)-methyl-1-piperazinyl]-4-oxo-4H-[1,3]thiazeto[3,2-a]quinoline-3-carboxylic acid acetonitrile solvate]", "values": [{"measurement": "Solubility at the time of occurrence of spontaneous nucleation or addition of seed crystals (Cs)", "setting": "[3]; 0 ° C.", "value": 0.07, "unit": "g/100 g"}, {"measurement": "Solubility at the time of occurrence of spontaneous nucleation or addition of seed crystals (Cs)", "setting": "[3]; 14.3 ° C.", "value": 0.16, "unit": "g/100 g"}, {"measurement": "Solubility at the time of occurrence of spontaneous nucleation or addition of seed crystals (Cs)", "setting": "[3]; 17 ° C.", "value": 0.19, "unit": "g/100 g"}, {"measurement": "Solubility at the time of occurrence of spontaneous nucleation or addition of seed crystals (Cs)", "setting": "[3]; 25 ° C.", "value": 0.29, "unit": "g/100 g"}, {"measurement": "Solubility at the time of occurrence of spontaneous nucleation or addition of seed crystals (Cs)", "setting": "[3]; 27 ° C.", "value": 0.32, "unit": "g/100 g"}, {"measurement": "Solubility at the time of occurrence of spontaneous nucleation or addition of seed crystals (Cs)", "setting": "[3]; 30 ° C.", "value": 0.38, "unit": "g/100 g"}, {"measurement": "Solubility at the time of occurrence of spontaneous nucleation or addition of seed crystals (Cs)", "setting": "[3]; 45 ° C.", "value": 0.79, "unit": "g/100 g"}, {"measurement": "Solubility at the time of occurrence of spontaneous nucleation or addition of seed crystals (Cs)", "setting": "[3]; 50 ° C.", "value": 1.00, "unit": "g/100 g"}, {"measurement": "Solubility at the time of occurrence of spontaneous nucleation or addition of seed crystals (Cs)", "setting": "[3]; 55 ° C.", "value": 1.25, "unit": "g/100 g"}, {"measurement": "Solubility at the time of occurrence of spontaneous nucleation or addition of seed crystals (Cs)", "setting": "[3]; 65 ° C.", "value": 1.92, "unit": "g/100 g"}, {"measurement": "Solubility at the time of occurrence of spontaneous nucleation or addition of seed crystals (Cs)", "setting": "[3]; 70 ° C.", "value": 2.36, "unit": "g/100 g"}, {"measurement": "Crystal form", "setting": "[4]; 25 ° C.", "value": "Not changed"}, {"measurement": "Crystal form", "setting": "[4]; 40 ° C.", "value": "Not changed"}, {"measurement": "Crystal form", "setting": "[4]; 55 ° C.", "value": "Not changed"}, {"measurement": "Crystal form", "setting": "[4]; 67 ° C.", "value": "Not changed"}]}
